# Assay results taken from ChEMBL document CHEMBL5726443, “Bicyclic sulfonamide compounds as sodium channel inhibitors” (2017).
# Target: Sodium channel protein type 9 subunit alpha (Homo sapiens, UniProt Q15858)
# Assay: Compound effects were measured on a partially inactivated state of the sodium channel. Cells were clamped to a holding potential yielding 20 to 50% inactivation. To elicit sodium current, channels were activated by pulsing to ⿿10 mV for 20 msec. This voltage protocol was repeated at a rate of 0.1 Hz throughout the experiment.
# Chain of Sodium channel protein type 9 subunit alpha (Q15858 whole entry): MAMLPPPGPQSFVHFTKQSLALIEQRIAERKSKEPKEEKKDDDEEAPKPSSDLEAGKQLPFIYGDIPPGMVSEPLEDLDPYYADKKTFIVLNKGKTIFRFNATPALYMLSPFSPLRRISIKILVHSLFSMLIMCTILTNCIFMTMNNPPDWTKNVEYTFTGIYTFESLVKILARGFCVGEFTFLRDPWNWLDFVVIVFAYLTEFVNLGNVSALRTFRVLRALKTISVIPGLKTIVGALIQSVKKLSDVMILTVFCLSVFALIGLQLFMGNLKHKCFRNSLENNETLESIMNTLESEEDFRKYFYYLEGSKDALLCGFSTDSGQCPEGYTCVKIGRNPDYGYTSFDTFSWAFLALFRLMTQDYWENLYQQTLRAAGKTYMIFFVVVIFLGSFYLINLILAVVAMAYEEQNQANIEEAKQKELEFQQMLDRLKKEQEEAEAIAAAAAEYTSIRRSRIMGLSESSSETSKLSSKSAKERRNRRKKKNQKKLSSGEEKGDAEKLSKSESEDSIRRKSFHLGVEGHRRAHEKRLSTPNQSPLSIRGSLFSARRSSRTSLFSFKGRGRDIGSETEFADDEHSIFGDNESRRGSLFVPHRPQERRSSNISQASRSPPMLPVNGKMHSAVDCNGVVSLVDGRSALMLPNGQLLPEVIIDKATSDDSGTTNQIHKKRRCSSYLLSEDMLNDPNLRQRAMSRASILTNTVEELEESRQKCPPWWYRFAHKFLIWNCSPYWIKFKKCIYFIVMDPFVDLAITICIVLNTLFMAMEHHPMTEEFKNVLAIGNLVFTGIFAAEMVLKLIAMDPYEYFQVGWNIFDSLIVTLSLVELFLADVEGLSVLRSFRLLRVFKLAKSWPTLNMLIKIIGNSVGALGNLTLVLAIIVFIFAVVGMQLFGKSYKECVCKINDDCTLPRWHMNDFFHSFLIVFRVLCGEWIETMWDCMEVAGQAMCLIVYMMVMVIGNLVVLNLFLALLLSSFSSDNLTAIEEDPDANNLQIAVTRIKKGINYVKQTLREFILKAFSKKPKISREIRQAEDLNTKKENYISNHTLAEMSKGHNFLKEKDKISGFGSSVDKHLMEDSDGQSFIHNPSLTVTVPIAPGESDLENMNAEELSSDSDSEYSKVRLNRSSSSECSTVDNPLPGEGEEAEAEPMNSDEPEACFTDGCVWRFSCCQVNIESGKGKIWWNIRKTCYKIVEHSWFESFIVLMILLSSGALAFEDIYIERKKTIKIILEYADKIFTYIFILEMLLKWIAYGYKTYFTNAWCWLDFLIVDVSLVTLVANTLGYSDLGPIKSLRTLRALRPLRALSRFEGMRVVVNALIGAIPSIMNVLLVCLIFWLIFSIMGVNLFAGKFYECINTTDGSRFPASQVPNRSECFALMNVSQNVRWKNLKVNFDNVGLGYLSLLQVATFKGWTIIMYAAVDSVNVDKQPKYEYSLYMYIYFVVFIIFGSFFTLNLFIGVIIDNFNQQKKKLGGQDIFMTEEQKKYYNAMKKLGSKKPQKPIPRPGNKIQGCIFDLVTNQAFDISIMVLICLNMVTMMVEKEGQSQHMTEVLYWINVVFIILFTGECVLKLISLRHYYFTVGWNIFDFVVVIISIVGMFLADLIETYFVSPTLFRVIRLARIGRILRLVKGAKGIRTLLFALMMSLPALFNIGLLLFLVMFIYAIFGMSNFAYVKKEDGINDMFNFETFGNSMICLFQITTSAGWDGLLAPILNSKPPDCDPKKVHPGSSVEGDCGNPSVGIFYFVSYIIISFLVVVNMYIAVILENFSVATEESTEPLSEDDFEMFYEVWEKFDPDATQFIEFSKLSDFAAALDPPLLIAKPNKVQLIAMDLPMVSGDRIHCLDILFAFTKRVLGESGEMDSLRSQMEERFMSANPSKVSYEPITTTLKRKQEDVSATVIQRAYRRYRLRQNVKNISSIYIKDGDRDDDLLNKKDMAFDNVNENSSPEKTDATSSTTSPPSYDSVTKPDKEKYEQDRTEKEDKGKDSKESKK
row,SMILES,IC50 [nM]
1,COc1cc(-c2ccc(Cl)c(F)c2)c(C#N)cc1-c1nccc2cc(S(=O)(=O)Nc3nncs3)ccc12,18.6
2,COc1cc(-c2cccc(C(F)(F)F)c2)c(C)cc1-c1nccc2cc(S(=O)(=O)Nc3ccon3)ccc12,60.9
3,COc1cc(-c2cccc(Cl)c2)c(F)cc1-c1ncnc2cc(S(=O)(=O)Nc3ncc(F)cn3)ccc12,107
4,COc1cc(-c2ccc(F)c(C)n2)c(C)cc1-c1ncnc2cc(S(=O)(=O)Nc3ccon3)ccc12,445
5,COc1cc(-c2ccc(F)c(Cl)c2)c(C#N)cc1-c1nccc2cc(S(=O)(=O)Nc3nncs3)ccc12,9.2
